Experiment: xn = mol fraction of the nth substance listed
Details: 101 kPa, Liquid; for speed of sound: Sing-around technique in a fixed-path interferometer

Cc1cccc(C)c1 [1,3-dimethylbenzene] + COC(C)(C)C
Details | mass density [kg/m3] | speed of sound [m/s]
305.65 K, x2 = 0 | 853.441 | –
305.65 K, x2 = 0.047 | 848.1 | –
305.65 K, x2 = 0.115 | 840.172 | –
305.65 K, x2 = 0.212 | 828.758 | –
305.65 K, x2 = 0.304 | 817.815 | –
305.65 K, x2 = 0.399 | 806.139 | –
305.65 K, x2 = 0.5 | 793.525 | –
305.65 K, x2 = 0.601 | 780.692 | –
305.65 K, x2 = 0.651 | 774.141 | –
305.65 K, x2 = 0.794 | 755.009 | –
305.65 K, x2 = 0.898 | 740.889 | –
305.65 K, x2 = 0.954 | 733.146 | –
308.15 K, x2 = 0 | 851.282 | 1279.8
308.15 K, x2 = 0.047 | 845.927 | 1267.6
308.15 K, x2 = 0.115 | 837.974 | 1249.3
308.15 K, x2 = 0.212 | 826.519 | 1222.5
308.15 K, x2 = 0.304 | 815.538 | 1197.2
308.15 K, x2 = 0.399 | 803.818 | 1170.3
308.15 K, x2 = 0.5 | 791.157 | 1141.6
308.15 K, x2 = 0.601 | 778.273 | 1112
308.15 K, x2 = 0.651 | 771.692 | 1096.4
308.15 K, x2 = 0.794 | 752.457 | 1053.3
308.15 K, x2 = 0.898 | 738.286 | 1021.4
308.15 K, x2 = 0.954 | 730.505 | 1004.8
310.65 K, x2 = 0 | 849.122 | 1269.6
310.65 K, x2 = 0.047 | 843.75 | 1257.3
310.65 K, x2 = 0.115 | 835.768 | 1239.1
310.65 K, x2 = 0.212 | 824.276 | 1212.1
310.65 K, x2 = 0.304 | 813.255 | 1186.8
310.65 K, x2 = 0.399 | 801.494 | 1159.8
310.65 K, x2 = 0.5 | 788.781 | 1130.9
310.65 K, x2 = 0.601 | 775.847 | 1101.1
310.65 K, x2 = 0.651 | 769.237 | 1085.5
310.65 K, x2 = 0.794 | 749.912 | 1042.3
310.65 K, x2 = 0.898 | 735.671 | 1010.1
310.65 K, x2 = 0.954 | 727.852 | 993.4
313.15 K, x2 = 0 | 846.958 | 1259.5
313.15 K, x2 = 0.047 | 841.566 | 1247.2
313.15 K, x2 = 0.115 | 833.56 | 1228.8
313.15 K, x2 = 0.212 | 822.027 | 1201.8
313.15 K, x2 = 0.304 | 810.966 | 1176.3
313.15 K, x2 = 0.399 | 799.161 | 1149.3
313.15 K, x2 = 0.5 | 786.398 | 1120.3
313.15 K, x2 = 0.601 | 773.412 | 1090.2
313.15 K, x2 = 0.651 | 766.771 | 1074.7
313.15 K, x2 = 0.794 | 747.356 | 1031.2
313.15 K, x2 = 0.898 | 733.042 | 998.84
313.15 K, x2 = 0.954 | 725.183 | 981.87
315.65 K, x2 = 0 | 844.792 | 1249.3
315.65 K, x2 = 0.047 | 839.381 | 1237
315.65 K, x2 = 0.115 | 831.348 | 1218.6
315.65 K, x2 = 0.212 | 819.775 | 1191.5
315.65 K, x2 = 0.304 | 808.673 | 1165.9
315.65 K, x2 = 0.399 | 796.825 | 1138.8
315.65 K, x2 = 0.5 | 784.01 | 1109.7
315.65 K, x2 = 0.601 | 770.967 | 1079.5
315.65 K, x2 = 0.651 | 764.3 | 1063.9
315.65 K, x2 = 0.794 | 744.791 | 1020.2
315.65 K, x2 = 0.898 | 730.402 | 987.66
315.65 K, x2 = 0.954 | 722.504 | 970.42
318.15 K, x2 = 0 | 842.622 | 1239.3
318.15 K, x2 = 0.047 | 837.193 | 1226.9
318.15 K, x2 = 0.115 | 829.131 | 1208.5
318.15 K, x2 = 0.212 | 817.518 | 1181.2
318.15 K, x2 = 0.304 | 806.375 | 1155.6
318.15 K, x2 = 0.399 | 794.481 | 1128.3
318.15 K, x2 = 0.5 | 781.614 | 1099.1
318.15 K, x2 = 0.601 | 768.518 | 1068.8
318.15 K, x2 = 0.651 | 761.816 | 1053.1
318.15 K, x2 = 0.794 | 742.213 | 1009.3
318.15 K, x2 = 0.898 | 727.749 | 976.53
318.15 K, x2 = 0.954 | 719.811 | 959.09
320.65 K, x2 = 0 | 840.452 | 1229.3
320.65 K, x2 = 0.047 | 835 | 1216.9
320.65 K, x2 = 0.115 | 826.912 | 1198.3
320.65 K, x2 = 0.212 | 815.256 | 1171
320.65 K, x2 = 0.304 | 804.075 | 1145.3
320.65 K, x2 = 0.399 | 792.132 | 1118
320.65 K, x2 = 0.5 | 779.21 | 1088.6
320.65 K, x2 = 0.601 | 766.061 | 1058.2
320.65 K, x2 = 0.651 | 759.325 | 1042.4
320.65 K, x2 = 0.794 | 739.628 | 998.4
320.65 K, x2 = 0.898 | 725.085 | 965.42
320.65 K, x2 = 0.954 | 717.105 | 947.81
323.15 K, x2 = 0 | 838.289 | 1219.5
323.15 K, x2 = 0.047 | 832.812 | 1207
323.15 K, x2 = 0.115 | 824.696 | 1188.4
323.15 K, x2 = 0.212 | 813.002 | 1161.1
323.15 K, x2 = 0.304 | 801.776 | 1135.1
323.15 K, x2 = 0.399 | 789.785 | 1107.7
323.15 K, x2 = 0.5 | 776.809 | 1078.2
323.15 K, x2 = 0.601 | 763.606 | 1047.7
323.15 K, x2 = 0.651 | 756.839 | 1031.9
323.15 K, x2 = 0.794 | 737.044 | 987.59
323.15 K, x2 = 0.898 | 722.414 | 954.46
323.15 K, x2 = 0.954 | 714.398 | 936.68

From the NIST ThermoML archive (doi:10.1016/j.fluid.2008.03.004)
